# Where two headings read alike, the source gives them in different places.
# Columns and labels:
# FGFR1 = FGFR1 (Homo sapiens (Human), UniProt P11362); assay: In vitro biochemical kinase assay (Caliper Assay), FGFR1; details: enzyme 0.25 nM, ATP 382 μM, 20 minutes; read-out: Enzymatic activity IC50(nM) FGFR1
# Method: (§1) I. In Vitro Biochemical Kinase Assay of FGFR 1˜3
# (§2) Caliper Assay was used in the present invention to determine the inhibitory activities of the compounds against FGFR1, FGFR2, and FGFR3. The specific experimental procedure was as follows: • 1. The kinase reaction in the present invention was carried out in 384-well plates, the kinase(Carna) at a certain concentration and ATP at a certain concentration and 1 μM of peptide FAM-P22 (GL Biochem, Cat. No. 112393)) was incubated to react for a certain time at 28° C. in a reaction system consisting of 50 mM HEPES, […], 0.0015% Brij-35 and basic kinase buffer; for FGFR1, the enzyme concentration was 0.25 nM and ATP concentration was 382 μM and the reaction time was 20 minutes; for FGFR2, the enzyme concentration was 2.5 nM, ATP concentration was 1 μM, and the reaction time was 40 minutes; for FGFR3, the enzyme concentration was 8 nM, ATP concentration was 4.7 μM, and the reaction time was 30 minutes: • 2. The reaction was terminated with a stop solution (100 mM HEPES, pH 7.5, 0.2% Caliper coating, reagent, 50 mM EDTA and 0.015% Brij35); • 3. The plate with the terminated kinase reaction was transferred to the Caliper workstation to read the data; • 4. the phosphorylated and unphosphorylated peptides were separated by the Caliper microfluid migration shift technique, and the analyte was transferred by a constant buffer flow through the chip, the migration of the substrate peptide was monitored by the labeled fluorescent signal, and the kinase activity was calculated by the amount of the phosphate-based peptide formed. • 5. IC50 was determined by non-linear regression analysis of percent inhibition at different concentration level of the compound.
# FGFR2 = FGFR2 (Homo sapiens (Human), UniProt P21802); assay: In vitro biochemical kinase assay (Caliper Assay), FGFR2; details: enzyme 2.5 nM, ATP 1 μM, 40 minutes; read-out: Enzymatic activity IC50(nM) FGFR2
# Chain of FGFR2 (P21802 22-821): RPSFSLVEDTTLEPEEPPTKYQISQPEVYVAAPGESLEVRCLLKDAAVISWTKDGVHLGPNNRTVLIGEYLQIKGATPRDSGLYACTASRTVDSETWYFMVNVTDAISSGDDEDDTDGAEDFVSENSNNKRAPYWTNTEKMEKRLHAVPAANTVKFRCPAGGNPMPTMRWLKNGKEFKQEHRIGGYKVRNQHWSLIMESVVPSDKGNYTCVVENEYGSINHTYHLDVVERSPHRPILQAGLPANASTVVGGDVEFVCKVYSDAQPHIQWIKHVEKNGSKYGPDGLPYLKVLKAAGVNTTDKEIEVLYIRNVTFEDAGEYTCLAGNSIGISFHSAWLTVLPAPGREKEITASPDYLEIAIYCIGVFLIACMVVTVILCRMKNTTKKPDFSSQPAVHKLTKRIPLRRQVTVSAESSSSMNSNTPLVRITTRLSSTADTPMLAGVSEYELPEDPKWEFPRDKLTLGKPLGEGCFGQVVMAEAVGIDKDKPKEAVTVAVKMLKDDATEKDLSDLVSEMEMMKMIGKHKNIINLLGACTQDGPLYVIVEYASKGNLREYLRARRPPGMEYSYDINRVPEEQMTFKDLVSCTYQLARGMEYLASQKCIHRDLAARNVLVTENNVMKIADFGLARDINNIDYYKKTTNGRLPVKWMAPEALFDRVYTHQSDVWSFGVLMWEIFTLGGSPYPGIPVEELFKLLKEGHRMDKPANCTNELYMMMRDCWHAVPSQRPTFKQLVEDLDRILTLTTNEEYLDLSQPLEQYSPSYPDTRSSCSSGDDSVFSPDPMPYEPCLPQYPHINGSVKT
# Method: as §1, §2
# [1] = tested on: Snu-16 gastric cancer cells (FGFR2 gene amplification); assay: Cell proliferation assay (Cell Titer Glo), Snu-16; assay type: cell-based; details: Snu-16 cells, 3 days, CTG, read-out: Cellular IC50 (nM) Sun16
# Method: (§3) II. Cell Proliferation Assay (Cell Titer Glo(CTG) Assay)
# (§4) The FGFR signal pathway dependent inhibitory effect of the compound in the present invention on cell proliferation was assessed by survival test using CTG reagent (Promega, 4G7573). Cell lines representative of a variety of tumor types, including H1581 lung cancer cells (FGFR1 gene amplification), Snu-16 gastric cancer cells (FGFR2 gene amplification), and RT112 bladder carcinoma cells (FGFR3-TACC3 fusion) from Nanjing Cobioer Biosciences, were selected for the assay. The specific experimental procedure was as follows: • 1. 90 μL of cells were seeded into a 96-well plate processed with TCM (Costar 43904), and incubated overnight at 37° C. in a 5% CO2 incubator; afterwards, 10 μL of the culture medium containing the compound at 10 fold of its final concentration was added; • 2. The dose-dependent effect was evaluated by a serial dilution of the test compound, starting from 10 μM or a lower concentration. • 3. The cells were incubated at 37° C. under 5% C02 for 3 days, then added 50 μL CTG, and read the data with Envision (Pelkin Elmer) to quantify the ATP level in the cells. The ATP levels in cells with treatment of inhibitor at a variety of concentrations were compared with those in cells of the control group (in which DMSO was added into the medium) to evaluate the compound percent inhibition of cell proliferation/survival. • 4. The compound half growth inhibitory concentration (IC50) was determined in Graphpad Prism by 4-parameter curve fitting.
# [2] = tested on: H1581 lung cancer cells (FGFR1 gene amplification); assay: Cell proliferation assay (Cell Titer Glo), H1581; assay type: cell-based; details: 3 days, CTG, read-out: Cellular IC50 (nM) H1581
# Method: as §3, §4
# [3] = tested on: RT112 bladder carcinoma cells (FGFR3-TACC3 fusion); assay: Cell proliferation assay (Cell Titer Glo), RT112; assay type: cell-based; details: Homo sapiens, RT-112, 72 h, 3 days, CTG, read-out: Cellular IC50 (nM) RT112
# Method: as §3, §4
# Chain of FGFR1 (P11362 22-822): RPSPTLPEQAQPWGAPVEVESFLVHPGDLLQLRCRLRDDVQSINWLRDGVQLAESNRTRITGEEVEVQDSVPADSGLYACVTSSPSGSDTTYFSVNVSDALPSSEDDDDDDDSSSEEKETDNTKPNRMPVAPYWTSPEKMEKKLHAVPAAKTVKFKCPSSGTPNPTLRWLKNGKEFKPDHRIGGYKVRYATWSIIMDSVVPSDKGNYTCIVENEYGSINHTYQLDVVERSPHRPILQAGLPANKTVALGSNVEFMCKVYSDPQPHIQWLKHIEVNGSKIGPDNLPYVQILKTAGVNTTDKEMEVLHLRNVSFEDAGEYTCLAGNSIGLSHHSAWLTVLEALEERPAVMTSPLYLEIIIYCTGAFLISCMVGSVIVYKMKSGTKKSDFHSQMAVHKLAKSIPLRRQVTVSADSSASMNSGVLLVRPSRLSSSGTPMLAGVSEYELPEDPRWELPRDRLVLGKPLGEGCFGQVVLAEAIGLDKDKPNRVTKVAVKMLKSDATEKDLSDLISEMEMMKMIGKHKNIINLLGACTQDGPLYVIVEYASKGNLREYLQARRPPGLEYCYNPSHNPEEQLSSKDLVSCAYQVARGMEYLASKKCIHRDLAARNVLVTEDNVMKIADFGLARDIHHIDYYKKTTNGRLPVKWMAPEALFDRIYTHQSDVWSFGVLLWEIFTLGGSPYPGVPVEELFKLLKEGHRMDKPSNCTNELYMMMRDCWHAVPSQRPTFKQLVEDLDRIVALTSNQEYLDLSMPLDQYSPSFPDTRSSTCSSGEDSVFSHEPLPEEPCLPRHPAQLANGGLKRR
Compound,IC50 (FGFR1) [nM],IC50 (FGFR2) [nM],"IC50 ([1]; Homo sapiens, SNU-16, 72 h) [nM]","IC50 ([2]; Homo sapiens, NCI-H1581, 72 h) [nM]","IC50 ([1]; Homo sapiens, SNU-16, 72 h, numeric values) [nM]",IC50 ([3]; numeric values) [nM],IC50 [1] [nM],IC50 [2] [nM],IC50 [3] [nM]
"COc1cc(OC)c(Cl)c(-c2cc3cnc(-c4cnn(C)c4)cc3n(C(C)C)c2=O)c1Cl [Example 3, 3-(2,6-dichloro-3,5-dimethoxyphenyl)-1-isopropyl-7-(1-methyl-1H-pyrazol-4-yl)-1,6-naphthyridin-2(1H)-one]",5 to 10,≤ 5,,,,,,,
"COc1cc(OC)c(Cl)c(-c2cc3cnc(-c4cnn(C)c4)cc3n(CCN3CCOCC3)c2=O)c1Cl [Example 5, 3-(2,6-dichloro-3,5-dimethoxyphenyl)-7-(1-methyl-1H-pyrazol-4-yl)-1-(2-morpholinoethyl)-1,6-naphthyridin-2(1H)-one]",50 to 500,10 to 50,10 to 50,50 to 500,,,,,
"COc1cc(OC)c(Cl)c(-c2cc3cnc(-c4cnn(C)c4)cc3n(C3CCOC3)c2=O)c1Cl (centres unmarked) [Example 7, 3-(2,6-dichloro-3,5-dimethoxyphenyl)-7-(1-methyl-1H-pyrazol-4-yl)-1-(tetrahydrofuran-3-yl)-1,6-naphthyridin-2(1H)-one]",≤ 5,≤ 5,5 to 10,10 to 50,,,,,
"CCn1c(=O)c(-c2c(Cl)c(OC)cc(OC)c2Cl)cc2cnc(-c3cn(C)nc3C)cc21 [Example 9, 3-(2,6-dichloro-3,5-dimethoxyphenyl)-7-(1,3-dimethyl-1H-pyrazol-4-yl)-1-ethyl-1,6-naphthyridin-2(1H)-one]",10 to 50,≤ 5,,,,,,,
"CCn1c(=O)c(-c2c(Cl)c(OC)cc(OC)c2Cl)cc2cnc(-c3cnn(C4CN(S(C)(=O)=O)C4)c3)cc21 [Example 11, 3-(2,6-dichloro-3,5-dimethoxyphenyl)-1-ethyl-7-(1-(1-(methylsulfonyl)azetidin-3-yl)-1H-pyrazol-4-yl)-1,6-naphthyridin-2(1H)-one]",10 to 50,≤ 5,10 to 50,50 to 500,,,,,
"COc1cc(OC)c(Cl)c(-c2cc3cnc(-c4cnn(CCN5CCOCC5)c4)cc3n(C3CCOC3)c2=O)c1Cl (centres unmarked) [Example 18, 3-(2,6-dichloro-3,5-dimethoxyphenyl)-7-(1-(2-morpholinoethyl)-1H-pyrazol-4-yl)-1-(tetrahydrofuran-3-yl)-1,6-naphthyridin-2(1H)-one]",,,,50 to 500,6,4.1,,,
"COc1cc(OC)c(Cl)c(-c2cc3cnc(-c4cnn(C)c4)cc3n([C@H]3CCOC3)c2=O)c1Cl [Example 22, (S)-3-(2,6-dichloro-3,5-dimethoxyphenyl)-7-(1-methyl-1H-pyrazol-4-yl)-1-(tetrahydrofuran-3-yl)-1,6-naphthyridin-2(1H)-one]",≤ 5,≤ 5,,,,,≤ 5,10 to 50,
"COc1cc(OC)c(F)c(-c2cc3cnc(-c4cnn(CCN5CCOCC5)c4)cc3n(C3CCCC3)c2=O)c1F [Example 34, 1-cyclopentyl-3-(2,6-difluoro-3,5-dimethoxyphenyl)-7-(1-(2-morpholinoethyl)-1H-pyrazol-4-yl)-1,6-naphthyridin-2(1H)-one]",,,≤ 5,10 to 50,,,,,≤ 5
"COc1cc(OC)c(F)c(-c2cc3cnc(-c4ccc(C(C)(C)C#N)nc4)cc3n(C3CCOC3)c2=O)c1F (centres unmarked) [Example 40, 2-(5-(3-(2,6-difluoro-3,5-dimethoxyphenyl)-2-oxo-1-(tetrahydrofuran-3-yl)-1,2-dihydro-1,6-naphthyridin-7-yl)pyridin-2-yl)-2-methylpropanenitrile]",5 to 10,≤ 5,5 to 10,50 to 500,,,,,
"CCn1c(=O)c(-c2c(Cl)c(OC)cc(OC)c2Cl)cc2cnc(-c3cn(C4CCN(C)C4)nc3C)cc21 (centres unmarked) [Example 46, 3-(2,6-dichloro-3,5-dimethoxyphenyl)-1-ethyl-7-(3-methyl-1-(1-methylpyrrolidin-3-yl)-1H-pyrazol-4-yl)-1,6-naphthyridin-2(1H)-one]",10 to 50,≤ 5,10 to 50,50 to 500,,,,,
"COc1cc(OC)c(Cl)c(-c2cc3cnc(-c4cnn(CCN(C)C)c4)cc3n(C3CCOC3)c2=O)c1Cl (centres unmarked) [Example 48, 3-(2,6-dichloro-3,5-dimethoxyphenyl)-7-(1-(2-(dimethylamino)ethyl)-1H-pyrazol-4-yl)-1-(tetrahydrofuran-3-yl)-1,6-naphthyridin-2(1H)-one]",10 to 50,≤ 5,5 to 10,50 to 500,,,,,

# Continued, values first:
IC50 (FGFR1) [nM],IC50 (FGFR2) [nM],"IC50 ([1]; Homo sapiens, SNU-16, 72 h) [nM]","IC50 ([2]; Homo sapiens, NCI-H1581, 72 h) [nM]","IC50 ([1]; Homo sapiens, SNU-16, 72 h, numeric values) [nM]",IC50 ([3]; numeric values) [nM],IC50 [1] [nM],IC50 [2] [nM],IC50 [3] [nM],Compound
10 to 50,≤ 5,,,,,,,,"CCn1c(=O)c(-c2c(Cl)c(OC)cc(OC)c2Cl)cc2cnc(-c3cnn(C)c3)cc21 [Example 1, 3-(2,6-dichloro-3,5-dimethoxyphenyl)-1-ethyl-7-(1-methyl-1H-pyrazol-4-yl)-1,6-naphthyridin-2(1H)-one]"
10 to 50,≤ 5,50 to 500,50 to 500,,,,,,"COc1cc(OC)c(Cl)c(-c2cc3cnc(-c4cnn(C)c4)cc3n(CC3CC3)c2=O)c1Cl [Example 4, 1-(cyclopropylmethyl) 3-(2,6-dichloro-3,5-dimethoxyphenyl)-7-(1-methyl-1H-pyrazol-4-yl)-1,6-naphthyridin-2(1H)-one]"
50 to 500,5 to 10,,,,,,,,"CCn1c(=O)c(-c2cc(OC)cc(OC)c2Cl)cc2cnc(-c3cnn(C)c3)cc21 [Example 13, 3-(2-chloro-3,5-dimethoxyphenyl)-1-ethyl-7-(1-methyl-1H-pyrazol-4-yl)-1,6-naphthyridin-2(1H)-one]"
≤ 5,≤ 5,50 to 500,50 to 500,,,,,,"CCn1c(=O)c(-c2c(F)c(OC)cc(OC)c2F)cc2cnc(-c3cnn(C)c3)cc21 [Example 25, 3-(2,6-difluoro-3,5-dimethoxyphenyl)-1-ethyl-7-(1-methyl-1H-pyrazol-4-yl)-1,6-naphthyridin-2(1H)-one]"
5 to 10,≤ 5,10 to 50,50 to 500,,,,,,"CCn1c(=O)c(-c2c(F)c(OC)cc(OC)c2F)cc2cnc(-c3cnn(CCN4CCOCC4)c3)cc21 [Example 29, 3-(2,6-difluoro-3,5-dimethoxyphenyl)-1-ethyl-7-(1-(2-morpholinoethyl)-1H-pyrazol-4-yl)-1,6-naphthyridin-2(1H)-one]"
≤ 5,≤ 5,≤ 5,10 to 50,,,,,,"COc1cc(OC)c(F)c(-c2cc3cnc(-c4cnn(CCN5CCOCC5)c4)cc3n(C(C)C)c2=O)c1F [Example 30, 3-(2,6-difluoro-3,5-dimethoxyphenyl)-1-isopropyl-7-(1-(2-morpholinoethyl)-1H-pyrazol-4-yl)-1,6-naphthyridin-2(1H)-one]"
≤ 5,≤ 5,≤ 5,10 to 50,,,,,,"COc1cc(OC)c(F)c(-c2cc3cnc(-c4cnn(C)c4)cc3n(C3CCCC3)c2=O)c1F [Example 33, 1-cyclopentyl-3-(2,6-difluoro-3,5-dimethoxyphenyl)-7-(1-methyl-1H-pyrazol-4-yl)-1,6-naphthyridin-2(1H)-one]"
